From PMC5107132 (European journal of pharmacology, 2016)
Marks after values point to notes of the source that are not given here.

Test system: Wistar rats
Assay: Rotarod test
Type: in vivo, rat
Settings: 15 mg/kg MP-III-022 in combination with 15 mg/kg flumazenil (FLU), i.p.

`C#Cc1ccc2c(c1)C(c1ccccc1F)=N[C@H](C)c1c(C(=O)NC)ncn1-2` [MP-III-022, (R)-8-Ethynyl-6-(2-fluorophenyl)-N,4-dimethyl-4H-benzo[f]imidazo[1,5-a][1,4]diazepine-3-carboxamide] was tested, and the “Rotarod, time remaining on the rod revolving at 15 rpm” value was 175.17 ± 4.83^a,d s.
